Measurements: ChEMBL document CHEMBL3525983, “Pharmacokinetics, metabolism, and disposition of rivoglitazone, a novel peroxisome proliferator-activated receptor γ agonist, in rats and monkeys” (Drug Metab Dispos, 2011)

How the values were obtained:
Rattus norvegicus = test: Drug uptake in F344/DuCrlCrlj rat plasma assessed as unchanged compound at 1 to 5 mg/kg, po administered as single dose via gavage by LC-MS/MS analysis; format: ADME, organism-based; design: dose 1-5 mg/kg, dosed compound name [14C]Rivoglitazone, route oral; details: in vivo
[1] = Drug excretion in F344/DuCrlCrlj rat urine/feces assessed as unchanged compound at 1 mg/kg, po administered via gavage measured during 0 to 48 hrs by radio-HPLC analysis; format: ADME, organism-based; design: dose 1 mg/kg, dosed compound name [14C]Rivoglitazone, route oral; details: urine and feces, read-out: Compound recovery
[2] = Drug excretion in bile duct-cannulated rat feces assessed as unchanged compound level administered through oral dose by radio-HPLC analysis; format: ADME; design: dosed compound name [14C]Rivoglitazone; details: read-out: Compound recovery
[3] = Drug excretion in monkey feces assessed as unchanged compound at 1 mg/kg, po administered via gavage measured during 0 to 72 hrs by radio-HPLC analysis; format: ADME, organism-based, Macaca mulatta; design: dose 1 mg/kg, dosed compound name [14C]Rivoglitazone, route oral; details: rhesus monkey, read-out: Compound recovery
[4] = Oral bioavailability in monkey at 0.0986 mg/kg administered via gavage by LC-MS/MS analysis; format: ADME, organism-based, Macaca mulatta; design: dosed compound name [14C]Rivoglitazone; details: rhesus monkey, in vivo
[5] = AUC (0 to infinity) in monkey at 0.493 mg/kg, po administered via gavage by LC-MS/MS analysis; format: ADME, organism-based, Macaca mulatta; design: time infinity, dose 0.493 mg/kg, dosed compound name [14C]Rivoglitazone, route oral; details: rhesus monkey, plasma
[6] = Cmax in monkey at 0.493 mg/kg, po administered via gavage by LC-MS/MS analysis; format: ADME, organism-based, Macaca mulatta; design: dose 0.493 mg/kg, dosed compound name [14C]Rivoglitazone, route oral; details: rhesus monkey, in vivo
[7] = Tmax in monkey at 0.493 mg/kg, po administered via gavage by LC-MS/MS analysis; format: ADME, organism-based, Macaca mulatta; design: dose 0.493 mg/kg, dosed compound name [14C]Rivoglitazone, route oral; details: rhesus monkey, in vivo
[8] = Terminal elimination half life in monkey at 0.493 mg/kg, po administered via gavage by LC-MS/MS analysis; format: ADME, organism-based, Macaca mulatta; design: dose 0.493 mg/kg, dosed compound name [14C]Rivoglitazone, route oral; details: rhesus monkey, in vivo, read-out: beta t1/2 (converted)
[9] = Apparent total clearance in monkey at 0.493 mg/kg, po administered via gavage by LC-MS/MS analysis; format: ADME, organism-based, Macaca mulatta; design: dose 0.493 mg/kg, dosed compound name [14C]Rivoglitazone, route oral; details: rhesus monkey, in vivo, read-out: CLt/F
[10] = Tmax in monkey at 0.986 mg/kg, po administered via gavage by LC-MS/MS analysis; format: ADME, organism-based, Macaca mulatta; design: dose 0.986 mg/kg, dosed compound name [14C]Rivoglitazone, route oral; details: rhesus monkey, in vivo
[11] = Apparent total clearance in monkey at 0.986 mg/kg, po administered via gavage by LC-MS/MS analysis; format: ADME, organism-based, Macaca mulatta; design: dose 0.986 mg/kg, dosed compound name [14C]Rivoglitazone, route oral; details: rhesus monkey, in vivo, read-out: CLt/F
[12] = Oral bioavailability in monkey at 0.986 mg/kg administered via gavage by LC-MS/MS analysis; format: ADME, organism-based, Macaca mulatta; design: dosed compound name [14C]Rivoglitazone; details: rhesus monkey, in vivo
[13] = AUC (0 to infinity) in F344/DuCrlCrlj rat at 0.1 mg/kg, po administered via gavage by LC-MS/MS analysis; format: ADME, organism-based; design: time infinity, dose 0.1 mg/kg, dosed compound name [14C]Rivoglitazone, route oral; details: plasma
[14] = Cmax in F344/DuCrlCrlj rat at 0.1 mg/kg, po administered via gavage by LC-MS/MS analysis; format: ADME, organism-based; design: dose 0.1 mg/kg, dosed compound name [14C]Rivoglitazone, route oral; details: in vivo
[15] = AUC (0 to t) in F344/DuCrlCrlj rat at 0.5 mg/kg, po administered via gavage by LC-MS/MS analysis; format: ADME, organism-based; design: dose 0.5 mg/kg, dosed compound name [14C]Rivoglitazone, route oral; details: plasma
[16] = AUC (0 to infinity) in F344/DuCrlCrlj rat at 0.5 mg/kg, po administered via gavage by LC-MS/MS analysis; format: ADME, organism-based; design: time infinity, dose 0.5 mg/kg, dosed compound name [14C]Rivoglitazone, route oral; details: plasma
[17] = Terminal elimination half life in F344/DuCrlCrlj rat at 0.5 mg/kg, po administered via gavage by LC-MS/MS analysis; format: ADME, organism-based; design: dose 0.5 mg/kg, dosed compound name [14C]Rivoglitazone, route oral; details: in vivo, read-out: beta t1/2 (converted)
[18] = Oral bioavailability in F344/DuCrlCrlj rat at 0.5 mg/kg administered via gavage by LC-MS/MS analysis; format: ADME, organism-based; design: dosed compound name [14C]Rivoglitazone; details: in vivo
[19] = AUC (0 to t) in F344/DuCrlCrlj rat at 1 mg/kg, po administered via gavage by LC-MS/MS analysis; format: ADME, organism-based; design: dose 1 mg/kg, dosed compound name [14C]Rivoglitazone, route oral; details: plasma
[20] = AUC (0 to infinity) in F344/DuCrlCrlj rat at 1 mg/kg, po administered via gavage by LC-MS/MS analysis; format: ADME, organism-based; design: time infinity, dose 1 mg/kg, dosed compound name [14C]Rivoglitazone, route oral; details: plasma
[21] = Tmax in F344/DuCrlCrlj rat at 1 mg/kg, po administered via gavage by LC-MS/MS analysis; format: ADME, organism-based; design: dose 1 mg/kg, dosed compound name [14C]Rivoglitazone, route oral; details: in vivo
[22] = Terminal elimination half life in F344/DuCrlCrlj rat at 1 mg/kg, po administered via gavage by LC-MS/MS analysis; format: ADME, organism-based; design: dose 1 mg/kg, dosed compound name [14C]Rivoglitazone, route oral; details: in vivo, read-out: beta t1/2 (converted)
[23] = AUC (0 to infinity) in monkey at 0.0986 mg/kg, po administered via gavage by LC-MS/MS analysis; format: ADME, organism-based, Macaca mulatta; design: time infinity, dose 0.0986 mg/kg, dosed compound name [14C]Rivoglitazone, route oral; details: rhesus monkey, plasma
[24] = Terminal elimination half life in monkey at 0.0986 mg/kg, po administered via gavage by LC-MS/MS analysis; format: ADME, organism-based, Macaca mulatta; design: dose 0.0986 mg/kg, dosed compound name [14C]Rivoglitazone, route oral; details: rhesus monkey, in vivo, read-out: beta t1/2 (converted)
[25] = AUC (0 to t) in monkey at 0.493 mg/kg, iv administered via tail vein by LC-MS/MS analysis; format: ADME, organism-based, Macaca mulatta; design: dose 0.493 mg/kg, dosed compound name [14C]Rivoglitazone, route intravenous; details: rhesus monkey, plasma
[26] = AUC (0 to t) in monkey at 0.986 mg/kg, iv administered via tail vein by LC-MS/MS analysis; format: ADME, organism-based, Macaca mulatta; design: dose 0.986 mg/kg, dosed compound name [14C]Rivoglitazone, route intravenous; details: rhesus monkey, plasma
[27] = AUC (0 to infinity) in monkey at 0.986 mg/kg, iv administered via tail vein by LC-MS/MS analysis; format: ADME, organism-based, Macaca mulatta; design: time infinity, dose 0.986 mg/kg, dosed compound name [14C]Rivoglitazone, route intravenous; details: rhesus monkey, plasma
[28] = Terminal elimination half life in F344/DuCrlCrlj rat at 0.1 mg/kg, iv administered via tail vein by LC-MS/MS analysis; format: ADME, organism-based; design: dose 0.1 mg/kg, dosed compound name [14C]Rivoglitazone, route intravenous; details: in vivo, read-out: beta t1/2 (converted)
[29] = AUC (0 to t) in F344/DuCrlCrlj rat at 0.5 mg/kg, iv administered via tail vein by LC-MS/MS analysis; format: ADME, organism-based; design: dose 0.5 mg/kg, dosed compound name [14C]Rivoglitazone, route intravenous; details: plasma
[30] = Volume of distribution at steady state in F344/DuCrlCrlj rat at 0.5 mg/kg, iv administered via tail vein by LC-MS/MS analysis; format: ADME, organism-based; design: dose 0.5 mg/kg, dosed compound name [14C]Rivoglitazone, route intravenous; details: in vivo, read-out: Vdss
[31] = AUC (0 to infinity) in monkey at 0.0986 mg/kg, iv administered via tail vein by LC-MS/MS analysis; format: ADME, organism-based, Macaca mulatta; design: time infinity, dose 0.0986 mg/kg, dosed compound name [14C]Rivoglitazone, route intravenous; details: rhesus monkey, plasma
[32] = Volume of distribution at steady state in monkey at 0.0986 mg/kg, iv administered via tail vein by LC-MS/MS analysis; format: ADME, organism-based, Macaca mulatta; design: dose 0.0986 mg/kg, dosed compound name [14C]Rivoglitazone, route intravenous; details: rhesus monkey, in vivo, read-out: Vdss
[33] = Terminal elimination half life in monkey at 0.0986 mg/kg, iv administered via tail vein by LC-MS/MS analysis; format: ADME, organism-based, Macaca mulatta; design: dose 0.0986 mg/kg, dosed compound name [14C]Rivoglitazone, route intravenous; details: rhesus monkey, in vivo, read-out: beta t1/2 (converted)
[34] = Retention time of the compound by LC-MS/MS analysis; format: physicochemical; design: dosed compound name [14C]Rivoglitazone

Compound recovery (Rattus norvegicus): metabolite_detected
dose excreted [1]: 23.7%
dose excreted [2]: 12.6%
dose excreted [3]: 23.5%
bioavailability [4]: 106%
AUC(0-inf) [5]: 17700 ng·h/mL
Cmax [6]: 1330 ng/mL
Tmax [7]: 4.25 h
half-life [8]: 7.56 h
CL/F [9]: 0.485 mL/min/kg
Tmax [10]: 3.5 h
CL/F [11]: 0.41 mL/min/kg
bioavailability [12]: 76.1%
AUC(0-inf) [13]: 4450 ng·h/mL
Cmax [14]: 409 ng/mL
AUC(0-t) [15]: 21000 ng·h/mL
AUC(0-inf) [16]: 21800 ng·h/mL
half-life [17]: 4.98 h
bioavailability [18]: 95%
AUC(0-t) [19]: 48500 ng·h/mL
AUC(0-inf) [20]: 49800 ng·h/mL
Tmax [21]: 2.25 h
half-life [22]: 4.5 h
AUC(0-inf) [23]: 4470 ng·h/mL
half-life [24]: 8.33 h
AUC(0-t) [25]: 21700 ng·h/mL
AUC(0-t) [26]: 51700 ng·h/mL
AUC(0-inf) [27]: 57200 ng·h/mL
half-life [28]: 4.55 h
AUC(0-t) [29]: 22300 ng·h/mL
Vd [30]: 0.131 L/kg
AUC(0-inf) [31]: 5000 ng·h/mL
Vd [32]: 0.166 L/kg
half-life [33]: 6.38 h
Retention_time [34]: 23 min
SMILES: COc1ccc2nc(COc3ccc(CC4SC(=O)NC4=O)cc3)n(C)c2c1.Cl (racemic)
